This note sets out measurements from the NIST ThermoML archive (doi:10.1021/je0601816).

This data set can be described thus: xn = mol fraction of the nth substance listed. The settings on record: 100 kPa, Liquid, Taylor dispersion method, x1 = 0.

`O=C[C@H](O)[C@@H](O)[C@@H](O)[C@H](O)CO` [(+)-galactose] + O: the binary diffusion coefficient (273.2 K) was 3.19e-10 m2/s; the binary diffusion coefficient (293.2 K) is 6.25e-10 m2/s; the binary diffusion coefficient (298.2 K) was 7.06e-10 m2/s; the binary diffusion coefficient (313.2 K) worked out at 1.01e-09 m2/s; the binary diffusion coefficient (333.2 K) was found to be 1.51e-09 m2/s; the binary diffusion coefficient (353.2 K) amounted to 2.17e-09 m2/s.
As for `O=C[C@@H](O)[C@H](O)[C@H](O)CO` [D-(-)-arabinose] + O, the binary diffusion coefficient (273.2 K) is 3.59e-10 m2/s; the binary diffusion coefficient (293.2 K) worked out at 6.82e-10 m2/s; the binary diffusion coefficient (298.2 K) is 7.73e-10 m2/s; the binary diffusion coefficient (313.2 K) amounted to 1.11e-09 m2/s; the binary diffusion coefficient (333.2 K) worked out at 1.67e-09 m2/s; the binary diffusion coefficient (353.2 K) amounted to 2.37e-09 m2/s.
With `O=C[C@H](O)[C@@H](O)[C@H](O)[C@H](O)CO` [D-glucose] + O, the binary diffusion coefficient (273.2 K) was found to be 3.23e-10 m2/s; the binary diffusion coefficient (293.2 K) was determined as 6.05e-10 m2/s; the binary diffusion coefficient (298.2 K) is 6.76e-10 m2/s; the binary diffusion coefficient (313.2 K) stood at 9.97e-10 m2/s; the binary diffusion coefficient (333.2 K) was determined as 1.49e-09 m2/s; the binary diffusion coefficient (353.2 K) turned out to be 2.13e-09 m2/s.
With `O=C[C@@H](O)[C@@H](O)[C@H](O)[C@H](O)CO` [D-mannose] + O, the binary diffusion coefficient reads like this: (273.2 K) 3.34e-10 m2/s; (293.2 K) 6.2e-10 m2/s; (298.2 K) 7.04e-10 m2/s; (313.2 K) 1.02e-09 m2/s; (333.2 K) 1.59e-09 m2/s; (353.2 K) 2.16e-09 m2/s.
On to `OC[C@H]1O[C@@](CO)(O[C@H]2O[C@H](CO)[C@@H](O)[C@H](O)[C@H]2O)[C@@H](O)[C@@H]1O` [D-sucrose] + O, for which the binary diffusion coefficient is, setting by setting: (273.2 K) 2.55e-10 m2/s; (293.2 K) 4.87e-10 m2/s; (298.2 K) 5.46e-10 m2/s; (313.2 K) 7.92e-10 m2/s; (333.2 K) 1.17e-09 m2/s; (353.2 K) 1.69e-09 m2/s.
With `O=C[C@H](O)[C@@H](O)[C@H](O)CO` [D-xylose] + O, the binary diffusion coefficient (273.2 K) was determined as 3.48e-10 m2/s; the binary diffusion coefficient (293.2 K) stood at 6.65e-10 m2/s; the binary diffusion coefficient (298.2 K) was found to be 7.69e-10 m2/s; the binary diffusion coefficient (313.2 K) amounted to 1.11e-09 m2/s; the binary diffusion coefficient (333.2 K) came out at 1.64e-09 m2/s; the binary diffusion coefficient (353.2 K) was determined as 2.33e-09 m2/s.
